Target: T1, SARM1 (50-724) (Homo sapiens, UniProt Q6SZW1)
T1 construct: Purified SARM1 (50-724) with a final concentration of 2 nM was pre-incubated with a test compound
T1 sequence (Q6SZW1 50-724): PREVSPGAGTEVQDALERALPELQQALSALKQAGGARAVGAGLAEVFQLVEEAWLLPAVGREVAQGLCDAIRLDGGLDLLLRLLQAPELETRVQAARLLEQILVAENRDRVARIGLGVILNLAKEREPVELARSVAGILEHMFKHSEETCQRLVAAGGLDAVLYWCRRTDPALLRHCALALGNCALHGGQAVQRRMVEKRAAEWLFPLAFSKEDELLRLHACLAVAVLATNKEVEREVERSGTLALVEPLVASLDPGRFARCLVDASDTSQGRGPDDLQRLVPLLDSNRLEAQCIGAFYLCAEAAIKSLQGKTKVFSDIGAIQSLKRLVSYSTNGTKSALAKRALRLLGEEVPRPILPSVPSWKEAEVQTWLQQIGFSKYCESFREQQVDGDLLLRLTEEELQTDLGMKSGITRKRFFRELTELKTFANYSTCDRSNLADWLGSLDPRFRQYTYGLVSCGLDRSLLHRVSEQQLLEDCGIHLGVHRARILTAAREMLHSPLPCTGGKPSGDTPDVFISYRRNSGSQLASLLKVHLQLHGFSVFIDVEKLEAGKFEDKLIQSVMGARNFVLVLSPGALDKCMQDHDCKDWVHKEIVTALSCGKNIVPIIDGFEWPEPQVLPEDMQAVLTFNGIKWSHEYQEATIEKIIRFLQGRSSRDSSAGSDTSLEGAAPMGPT
Test: SARM1 (50-724) enzymatic assay (LC-MS/MS)
Format: biochemical
Details: Purified SARM1 (50-724) 2 nM, NMN as activator, NAD+ as substrate, 1 h at room temperature, read-out: IC50 (SARM1 inhibitory activity)
Outline: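 Reaction buffer was Dulbecco's PBS. Compound and 2 nM human SARM1 (50-724) were pre-incubated 15 min at room temperature, then […] NAD^+ and 200 µM NMN activator were added for 1 h at room temperature. Acetonitrile (70%) stop, LC-MS/MS read-out, IC50 values.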

Row | SMILES | IC50 [nM]
1 | OC1CCN(c2cc(F)c3[nH]c(-c4nncn4-c4cnccc4C(F)(F)F)nc3c2)C1 (stereo not shown) [Compound 447, 1-(4-fluoro-2-(4-(4-(trifluoromethyl)pyridin-3-yl)-4H-1,2,4-triazol-3-yl)-1H-benzo[d]imidazol-6-yl)pyrrolidin-3-ol] | 500 to 1000
2 | CC(C)(N)c1ccc2[nH]c(-c3nncn3-c3cnccc3C(F)(F)F)nc2c1 [Compound 448, 2-[2-[4-[4-(trifluoromethyl)-3-pyridyl]-1,2,4-triazol-3-yl]-1H-benzimidazol-5-yl]propan-2-amine] | 100 to 500
3 | FC(F)(F)c1ccc2[nH]c(-c3ccnn3-c3cnccc3C(F)(F)F)nc2c1 [Compound 449, 5-(trifluoromethyl)-2-(1-(4-(trifluoromethyl)pyridin-3-yl)-1H-pyrazol-5-yl)-1H-benzo[d]imidazole] | ≤ 100
4 | CN(CCC(N)=O)c1cc(F)c2[nH]c(-c3nncn3-c3cnccc3C(F)(F)F)nc2c1 [Compound 450, 3-((4-fluoro-2-(4-(4-(trifluoromethyl)pyridin-3-yl)-4H-1,2,4-triazol-3-yl)-1H-benzo[d]imidazol-6-yl)(methyl)amino)propanamide] | ≤ 100
5 | CN(CCCO)c1cc(F)c2[nH]c(-c3nncn3-c3cnccc3C(F)(F)F)nc2c1 [Compound 451, 3-((4-fluoro-2-(4-(4-(trifluoromethyl)pyridin-3-yl)-4H-1,2,4-triazol-3-yl)-1H-benzo[d]imidazol-6-yl)(methyl)amino)propan-1-ol] | ≤ 100
6 | CCC(=O)c1cc(F)c2[nH]c(-c3nncn3-c3cnccc3C(F)(F)F)nc2c1 [Compound 452, 1-(4-fluoro-2-(4-(4-(trifluoromethyl)pyridin-3-yl)-4H-1,2,4-triazol-3-yl)-1H-benzo[d]imidazol-6-yl)propan-1-one] | ≤ 100
7 | CC(NC12CC(C1)C2)c1cc(F)c2[nH]c(-c3nncn3-c3cnccc3C(F)(F)F)nc2c1 (stereo not shown) [Compound 453, N-(1-(7-fluoro-2-(4-(4-(trifluoromethyl)pyridin-3-yl)-4H-1,2,4-triazol-3-yl)-1H-benzo[d]imidazol-5-yl)ethyl)bicyclo[1.1.1]pentan-1-amine] | ≤ 100
8 | CC(c1cc(F)c2[nH]c(-c3nncn3-c3cnccc3C(F)(F)F)nc2c1)n1cccn1 (stereo not shown) [Compound 454, 5-(1-(1H-pyrazol-1-yl)ethyl)-7-fluoro-2-(4-(4-(trifluoromethyl)pyridin-3-yl)-4H-1,2,4-triazol-3-yl)-1H-benzo[d]imidazole] | ≤ 100
9 | CN(CCCC(N)=O)c1cc(F)c2[nH]c(-c3nncn3-c3cnccc3C(F)(F)F)nc2c1 [Compound 455, 4-((4-fluoro-2-(4-(4-(trifluoromethyl)pyridin-3-yl)-4H-1,2,4-triazol-3-yl)-1H-benzo[d]imidazol-6-yl)(methyl)amino)butanamide] | ≤ 100
10 | Nc1nnc(-c2nc3cc(C(F)(F)F)cc(F)c3[nH]2)n1-c1cnccc1C(F)(F)F [Compound 456, 5-(7-fluoro-5-(trifluoromethyl)-1H-benzo[d]imidazol-2-yl)-4-(4-(trifluoromethyl)pyridin-3-yl)-4H-1,2,4-triazol-3-amine] | ≤ 100
11 | FC(F)(F)c1ccc2[nH]c(-c3nnccc3N3CCOCC3)nc2c1 [Compound 457, 4-(3-(5-(trifluoromethyl)-1H-benzo[d]imidazol-2-yl)pyridazin-4-yl)morpholine] | 500 to 1000
12 | CCOC(=O)/C=C/c1cccc2[nH]c(-c3nncn3-c3cnccc3C(F)(F)F)nc12 [Compound 459, ethyl (E)-3-(2-(4-(4-(trifluoromethyl)pyridin-3-yl)-4H-1,2,4-triazol-3-yl)-1H-benzo[d]imidazol-4-yl)acrylate] | 500 to 1000
13 | CC(c1ccncc1)c1cc(F)c2[nH]c(-c3nnccc3-c3cnccc3C(F)(F)F)nc2c1 (stereo not shown) [Compound 460, 7-fluoro-5-(1-(pyridin-4-yl)ethyl)-2-(4-(4-(trifluoromethyl)pyridin-3-yl)pyridazin-3-yl)-1H-benzo[d]imidazole] | ≤ 100
14 | CC(c1ccncc1)c1cc(F)c2[nH]c(-c3nncn3-c3cccc(F)c3Br)nc2c1 (stereo not shown) [Compound 462, 2-(4-(2-bromo-3-fluorophenyl)-4H-1,2,4-triazol-3-yl)-7-fluoro-5-(1-(pyridin-4-yl)ethyl)-1H-benzo[d]imidazole] | ≤ 100
15 | NC(=O)C(F)(F)c1ccc2[nH]c(-c3nncn3-c3ccc(F)c(F)c3Cl)nc2c1 [Compound 463, 2-(2-(4-(2-chloro-3,4-difluorophenyl)-4H-1,2,4-triazol-3-yl)-1H-benzo[d]imidazol-5-yl)-2,2-difluoroacetamide] | ≤ 100
16 | Fc1cc(C(F)(F)c2ccncc2)cc2nc(-c3nncn3-c3cnccc3C(F)(F)F)[nH]c12 [Compound 464, 6-(difluoro(pyridin-4-yl)methyl)-4-fluoro-2-(4-(4-(trifluoromethyl)pyridin-3-yl)-4H-1,2,4-triazol-3-yl)-1H-benzo[d]imidazole] | ≤ 100
17 | CC(Cc1nccs1)c1cc(F)c2[nH]c(-c3nncn3-c3cnccc3C(F)(F)F)nc2c1 (stereo not shown) [Compound 465, 2-(2-(7-fluoro-2-(4-(4-(trifluoromethyl)pyridin-3-yl)-4H-1,2,4-triazol-3-yl)-1H-benzo[d]imidazol-5-yl)propyl)thiazole] | ≤ 100
18 | Fc1cc(C2(F)CC2)cc2nc(-c3nnccc3-c3nnccc3C(F)(F)F)[nH]c12 [Compound 466, 7-fluoro-5-(1-fluorocyclopropyl)-2-(4-(trifluoromethyl)-[3,4′-bipyridazin]-3′-yl)-1H-benzo[d]imidazole] | ≤ 100
19 | Fc1cc(C(F)F)cc2nc(-c3nncn3-c3cnccc3C(F)(F)F)[nH]c12 [Compound 467, 6-(difluoromethyl)-4-fluoro-2-(4-(4-(trifluoromethyl)pyridin-3-yl)-4H-1,2,4-triazol-3-yl)-1H-benzo[d]imidazole] | ≤ 100

Row | SMILES | IC50 [nM]
20 | CC(F)(F)c1cc(F)c2[nH]c(-c3nncn3-c3cnccc3C(F)(F)F)nc2c1 [Compound 468, 6-(1,1-difluoroethyl)-4-fluoro-2-(4-(4-(trifluoromethyl)pyridin-3-yl)-4H-1,2,4-triazol-3-yl)-1H-benzo[d]imidazole] | ≤ 100
21 | Cc1ccc2[nH]c(-c3nncn3C3CCCC3)nc2c1 [Example 1, 2-(4-cyclopentyl-4H-1,2,4-triazol-3-yl)-5-methyl-1H-benzo[d]imidazole] | > 1000
22 | Cc1ccc2[nH]c(-c3nncn3-c3cccc(Cl)c3Cl)nc2c1 [Example 5, 2-(4-(2,3-dichlorophenyl)-4H-1,2,4-triazol-3-yl)-5-methyl-1H-benzo[d]imidazole] | ≤ 100
23 | FC(F)(F)c1ccc2[nH]c(-c3nncn3-c3cccc(Cl)c3Cl)nc2c1 [Example 15, 2-[4-(2,3-dichlorophenyl)-1,2,4-triazol-3-yl]-5-(trifluoromethyl)-1H-benzimidazole] | ≤ 100
24 | Cc1ccc2[nH]c(-c3ncccc3-c3cccc(Cl)c3Cl)nc2c1 [Example 21] | > 1000
25 | Cc1ccc2[nH]c(-c3ccncc3-c3cccc(Cl)c3Cl)nc2c1 [Example 22] | 500 to 1000
26 | Cc1ccc2[nH]c(-c3cnccc3-c3cccc(Cl)c3Cl)nc2c1 [Example 23] | ≤ 100
27 | Cc1ccc2[nH]c(-c3c(-c4cccc(Cl)c4Cl)cnn3C)nc2c1 [Example 34] | > 1000
28 | O=c1[nH]ccc(-c2cccc(Cl)c2Cl)c1-c1nc2cc(C(F)(F)F)ccc2[nH]1 [Example 35] | 100 to 500
29 | O=c1ccc(-c2cccc(Cl)c2Cl)c(-c2nc3cc(C(F)(F)F)ccc3[nH]2)[nH]1 [Example 37] | > 1000
30 | FC(F)(F)c1ccc2[nH]c(-c3cncnc3-c3cccc(Cl)c3Cl)nc2c1 [Example 38] | 100 to 500
31 | Cn1ncc(-c2cccc(Cl)c2Cl)c1-c1nc2cc(C(F)(F)F)ccc2[nH]1 [Example 39] | > 1000
32 | O=c1cc(-c2nc3cc(C(F)(F)F)ccc3[nH]2)c(-c2cccc(Cl)c2Cl)c[nH]1 [Example 40, 5-(2,3-dichlorophenyl)-4-[5-(trifluoromethyl)-1H-benzimidazol-2-yl]-1H-pyridin-2-one] | ≤ 100
33 | FC(F)(F)c1ccc2[nH]c(-c3scnc3-c3cccc(Cl)c3Cl)nc2c1 [Example 42] | 500 to 1000
34 | FC(F)(F)c1ccc2[nH]c(-c3n[nH]cc3-c3cccc(Cl)c3Cl)nc2c1 [Example 43] | 500 to 1000
35 | FC(F)(F)c1ccc2[nH]c(-c3cnncc3-c3cccc(Cl)c3Cl)nc2c1 [Example 44] | 100 to 500
36 | FC(F)(F)c1ccc2[nH]c(-c3cncn3-c3cccc(Cl)c3Cl)nc2c1 [Example 45, 2-(1-(2,3-dichlorophenyl)-1H-imidazol-5-yl)-5-(trifluoromethyl)-1H-benzo[d]imidazole] | ≤ 100
37 | CS(=O)(=O)c1ccc2[nH]c(-c3nncn3-c3cccc(Cl)c3Cl)nc2c1 [Example 46, 2-(4-(2,3-dichlorophenyl)-4H-1,2,4-triazol-3-yl)-5-(methylsulfonyl)-1H-benzo[d]imidazole] | 100 to 500

Reference: patent publication US20260258064A1 (SIRONAX LTD., priority 2023, published 2026)
